Values after ≈ are worked out from the molar mass of the structure shown.
How the values were obtained:
Escherichia coli [1] = test: Antibacterial activity against Escherichia coli NIHJ JC-2 was determined; assay type: functional
Proteus vulgaris = test: Antibacterial activity against Proteus vulgaris HX-19 was determined; assay type: functional
Staphylococcus aureus [2] = test: Antibacterial activity against Staphylococcus aureus ATCC 25923 was determined; assay type: functional
Klebsiella pneumoniae [3] = test: Antibacterial activity against Klebsiella pneumoniae IFO 3317 was determined; assay type: functional
Staphylococcus aureus [4] = test: Antibacterial activity against Staphylococcus aureus Smith was determined; assay type: functional
Micrococcus luteus [5] = test: Antibacterial activity against Micrococcus luteus ATCC 9341 was determined; assay type: functional
Enterobacter cloacae = test: Antibacterial activity against Enterobacter cloacae 963 was determined; assay type: functional
Staphylococcus aureus [6] = test: Antibacterial activity against Staphylococcus aureus 209P-JC was determined; assay type: functional
Pseudomonas aeruginosa = test: Antibacterial activity against Pseudomonas aeruginosa NCTC 10490 was determined; assay type: functional
Proteus mirabilis = test: Antibacterial activity against Proteus mirabilis IFO3849 was determined; assay type: functional
Escherichia coli [7] = test: Antibacterial activity against Escherichia coli ATCC 25922 was determined; assay type: functional
Providencia rettgeri = test: Antibacterial activity against Providencia rettgeri IFO3850 was determined; assay type: functional
Serratia marcescens = test: Antibacterial activity against Serratia marcescens IID 618 was determined; assay type: functional
Enterococcus hirae = test: Antibacterial activity against Enterococcus hirae ATCC 8043 was determined; assay type: functional
Morganella morganii [8] = test: Antibacterial activity against Morganella morganii IID 602 was determined; assay type: functional
Moraxella catarrhalis [9] = test: Antibacterial activity against M(B). catarrhalis AtCC 25238 was determined; assay type: functional
Klebsiella aerogenes = test: Antibacterial activity against Enterobacter aerogenes IFO 13048 was determined; assay type: functional
[10] = system: Staphylococcus epidermidis; test: Antibacterial activity against Staphylococcus epidermidis IID 866 was determined; assay type: functional
[11] = Evaluated for pharmacokinetic parameter Cmax in mouse at the dose 20 mg/kg; assay type: ADME, organism-based; parameters: dose 20 mg/kg; conditions: in vivo
[12] = Evaluated for pharmacokinetic parameter urine recovery in mouse at the dose 20 mg/kg (0-24 hr); assay type: ADME, organism-based; parameters: dose 20 mg/kg; conditions: read-out: UR
Morganella morganii [13] = test: Antibacterial activity against Morganella morganii IID 602; assay type: functional
[14] = Evaluated for pharmacokinetic parameter area under curve in rat at the dose 50 mg/kg (0-8 hr ); assay type: ADME, organism-based; parameters: time < 8 hr, dose 50 mg/kg; conditions: in vivo
[15] = Evaluated for pharmacokinetic parameter half-life in rabbit at the dose 20 mg/kg; assay type: ADME, organism-based, Oryctolagus cuniculus; parameters: dose 20 mg/kg; conditions: in vivo
[16] = Evaluated for pharmacokinetic parameter tmax in rabbit at the dose 20 mg/kg; assay type: ADME, organism-based, Oryctolagus cuniculus; parameters: dose 20 mg/kg; conditions: in vivo
[17] = Evaluated for pharmacokinetic parameter urine recovery in rabbit at the dose 20 mg/kg (0-24 hr); assay type: ADME, organism-based, Oryctolagus cuniculus; parameters: dose 20 mg/kg; conditions: read-out: UR
[18] = Evaluated for pharmacokinetic parameter urine recovery in rat at the dose 50 mg/kg (0-24 hr); assay type: ADME, organism-based; parameters: dose 50 mg/kg; conditions: read-out: UR
[19] = Evaluated for pharmacokinetic parameter Cmax in rabbit at the dose 20 mg/kg; assay type: ADME, organism-based, Oryctolagus cuniculus; parameters: dose 20 mg/kg; conditions: in vivo
[20] = Evaluated for pharmacokinetic parameter half-life in mouse at the dose 20 mg/kg; assay type: ADME, organism-based; parameters: dose 20 mg/kg; conditions: in vivo
[21] = Evaluated for pharmacokinetic parameter tmax in rat at the dose 50 mg/kg; assay type: ADME, organism-based; parameters: dose 50 mg/kg; conditions: in vivo
[22] = Evaluated for pharmacokinetic parameter half-life in rat at the dose 50 mg/kg; assay type: ADME, organism-based; parameters: dose 50 mg/kg; conditions: in vivo
[23] = Evaluated for pharmacokinetic parameter Cmax in rat at the dose 50 mg/kg; assay type: ADME, organism-based; parameters: dose 50 mg/kg; conditions: in vivo
[24] = Evaluated for pharmacokinetic parameter tmax in mouse at the dose 20 mg/kg was determined; assay type: ADME, organism-based; parameters: dose 20 mg/kg; conditions: in vivo
Haemophilus influenzae = test: Antibacterial activity against Haemophilus influenzae ATCC 19418 was determined; assay type: functional
[25] = Evaluated for pharmacokinetic parameter area under curve in rabbit at the dose 20 mg/kg (0-4 hr ); assay type: ADME, organism-based, Oryctolagus cuniculus; parameters: time < 4 hr, dose 20 mg/kg; conditions: in vivo
[26] = Evaluated for pharmacokinetic parameter area under curve in mouse at the dose 20 mg/kg (0-4 hr ); assay type: ADME, organism-based; parameters: time < 4 hr, dose 20 mg/kg; conditions: in vivo
Streptococcus pneumoniae = test: Antibacterial activity against Streptococcus pneumoniae IID 553 was determined; assay type: functional
Moraxella catarrhalis [27] = test: Antibacterial activity against M(B). catarrhalis ATCC 25238 was determined; assay type: functional
[28] = Evaluated for pharmacokinetic parameter area under curve in rat at the dose 50 mg/kg (0-8 hr); assay type: ADME, organism-based; parameters: time < 8 hr, dose 50 mg/kg; conditions: in vivo
[29] = Evaluated for pharmacokinetic parameter urine recovery in rat at the dose 50 mg/kg ( 0-24 hr ); assay type: ADME, organism-based; parameters: dose 50 mg/kg; conditions: read-out: UR
Micrococcus luteus [30] = test: Antibacterial activity against Micrococcus […] determined; assay type: functional
[31] = Evaluated for pharmacokinetic parameter area under curve in mouse at the dose 20 mg/kg (0-4 hr); assay type: ADME, organism-based; parameters: time < 4 hr, dose 20 mg/kg; conditions: in vivo
Klebsiella pneumoniae [32] = test: Antibacterial activity against Klebsiella pneumoniae IFO 331 was determined; assay type: functional
[33] = Evaluated for pharmacokinetic parameter urine recovery in rabbit at the dose 20 mg/kg ( 0-24 hr ); assay type: ADME, organism-based, Oryctolagus cuniculus; parameters: dose 20 mg/kg; conditions: read-out: UR
[34] = Evaluated for pharmacokinetic parameter tmax in mouse at the dose 20 mg/kg; assay type: ADME, organism-based; parameters: dose 20 mg/kg; conditions: in vivo
[35] = Evaluated for pharmacokinetic parameter urine recovery in mouse at the dose 20 mg/kg ( 0-24 hr ); assay type: ADME, organism-based; parameters: dose 20 mg/kg; conditions: read-out: UR

SMILES | MIC (Escherichia coli [1]) [µg/mL] | MIC (Proteus vulgaris) [µg/mL] | MIC (Staphylococcus aureus [2]) [µg/mL] | MIC (Klebsiella pneumoniae [3]) [µg/mL] | MIC (Staphylococcus aureus [4]) [µg/mL] | MIC (Micrococcus luteus [5]) [µg/mL] | MIC (Enterobacter cloacae) [µg/mL] | MIC (Staphylococcus aureus [6]) [µg/mL] | MIC (Pseudomonas aeruginosa) [µg/mL] | MIC (Proteus mirabilis) [µg/mL] | MIC (Escherichia coli [7]) [µg/mL] | MIC (Providencia rettgeri) [µg/mL] | MIC (Serratia marcescens) [µg/mL] | MIC (Enterococcus hirae) [µg/mL] | MIC (Morganella morganii [8]) [µg/mL] | MIC (Klebsiella aerogenes) [µg/mL] | MIC [10] [µg/mL] | Cmax [11] [ng/mL] | half-life [15] [h] | MIC (Moraxella catarrhalis [27]) [µg/mL] | other results
CO/N=C(\C(=O)NC1C(=O)N2C(C(=O)O)=C(/C=C\c3csnn3)CSC12)c1csc(N)n1 (stereo unspecified) | 0.39 (≈ 0.79 µM) | ≤ 0.006 | 0.78 (≈ 1.58 µM) | 0.012 (≈ 0.0243 µM) | 0.39 (≈ 0.79 µM) | 0.05 (≈ 0.101 µM) | 0.39 (≈ 0.79 µM) | 0.78 (≈ 1.58 µM) | 50 (≈ 101 µM) | 0.1 (≈ 0.203 µM) | 0.39 (≈ 0.79 µM) | ≤ 0.006 | 0.39 (≈ 0.79 µM) | 100 (≈ 203 µM) | 0.1 (≈ 0.203 µM) | 0.78 (≈ 1.58 µM) | 0.2 (≈ 0.405 µM) |  |  |  | MIC (Moraxella catarrhalis [9]): 0.025 µg/mL (≈ 0.0507 µM)
Nc1nc(/C(=N/O)C(=O)NC2C(=O)N3C(C(=O)O)=C(/C=C\c4csnn4)CSC23)cs1 (stereo unspecified) | 0.1 (≈ 0.209 µM) | 0.05 (≈ 0.104 µM) | 0.39 (≈ 0.813 µM) | 0.012 (≈ 0.025 µM) | 0.1 (≈ 0.209 µM) | 0.012 (≈ 0.025 µM) | 0.2 (≈ 0.417 µM) | 0.1 (≈ 0.209 µM) | > 100 | 0.05 (≈ 0.104 µM) | 0.1 (≈ 0.209 µM) | ≤ 0.006 | 0.39 (≈ 0.813 µM) | 12.5 (≈ 26.1 µM) |  | 0.2 (≈ 0.417 µM) | 0.05 (≈ 0.104 µM) | 1500 | 2.2 | 0.05 (≈ 0.104 µM) | dose excreted [12]: 1.9%; MIC (Morganella morganii [13]): 0.025 µg/mL (≈ 0.0521 µM); AUC at 8 h [14]: 19800 ng·h/mL; Tmax [16]: 2 h; dose excreted [17]: 17.4%; dose excreted [18]: 3.5%; Cmax [19]: 2000 ng/mL; half-life [20]: 0.7 h; Tmax [21]: 2 h; half-life [22]: 4.4 h; Cmax [23]: 6000 ng/mL; Tmax [24]: 2 h; MIC (Haemophilus influenzae): 0.05 µg/mL (≈ 0.104 µM); AUC at 4 h [25]: 9700 ng·h/mL; AUC at 4 h [26]: 4700 ng·h/mL; MIC (Streptococcus pneumoniae): 0.05 µg/mL (≈ 0.104 µM)
CO/N=C(\C(=O)NC1C(=O)N2C(C(=O)O)=C(/C=C\c3scnc3C)CSC12)c1csc(N)n1 (stereo unspecified) | 0.39 (≈ 0.77 µM) | ≤ 0.006 | 0.78 (≈ 1.54 µM) | 0.025 (≈ 0.0493 µM) | 0.78 (≈ 1.54 µM) | 0.025 (≈ 0.0493 µM) | 0.78 (≈ 1.54 µM) | 0.78 (≈ 1.54 µM) | 12.5 (≈ 24.7 µM) | 0.39 (≈ 0.77 µM) | 0.39 (≈ 0.77 µM) | 0.025 (≈ 0.0493 µM) | 0.39 (≈ 0.77 µM) | > 100 | 0.2 (≈ 0.395 µM) | 0.78 (≈ 1.54 µM) | 0.39 (≈ 0.77 µM) |  |  | ≤ 0.006 | 
C=CC1=C(C(=O)O)N2C(=O)[C@@H](NC(=O)/C(=N\O)c3csc(N)n3)[C@H]2SC1 [CEFDINIR] | 0.39 (≈ 0.986 µM) | 0.39 (≈ 0.986 µM) | 0.39 (≈ 0.986 µM) |  | 0.2 (≈ 0.506 µM) |  | 0.78 (≈ 1.97 µM) | 0.39 (≈ 0.986 µM) | > 100 | 0.2 (≈ 0.506 µM) | 0.39 (≈ 0.986 µM) | ≤ 0.006 | 1.56 (≈ 3.95 µM) | 100 (≈ 253 µM) | 6.25 (≈ 15.8 µM) | 1.56 (≈ 3.95 µM) | 0.1 (≈ 0.253 µM) | 2500 | 1.9 | 0.2 (≈ 0.506 µM) | AUC at 8 h [28]: 13200 ng·h/mL; dose excreted [29]: 13.2%; MIC (Micrococcus luteus [30]): 0.05 µg/mL (≈ 0.126 µM); AUC at 4 h [31]: 10000 ng·h/mL; Tmax [16]: 1 h; MIC (Klebsiella pneumoniae [32]): 0.1 µg/mL (≈ 0.253 µM); Cmax [19]: 5800 ng/mL; dose excreted [33]: 64.2%; Tmax [34]: 1 h; half-life [20]: 0.6 h; Tmax [21]: 2 h; half-life [22]: 1.5 h; Cmax [23]: 6000 ng/mL; MIC (Haemophilus influenzae): 0.39 µg/mL (≈ 0.986 µM); AUC at 4 h [25]: 64200 ng·h/mL; dose excreted [35]: 10%; MIC (Streptococcus pneumoniae): 0.1 µg/mL (≈ 0.253 µM)
